Source: PubChem BioAssay (NCI)
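96-well plates; 48 h exposure; 5 concentrations. Endpoints by linear interpolation between flanking doses. Not reached: highest tested concentration assigned. The concentration for full growth arrest is given as TGI.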

Key:
Experiment in all cases: NCI tumour cell line growth inhibition, 48 h
HCC-2998 colon = tested on: HCC-2998 colon
SF-295 CNS = tested on: SF-295 CNS
SK-MEL-28 melanoma = tested on: SK-MEL-28 melanoma
BT-549 breast = tested on: BT-549 breast
LOX IMVI melanoma = tested on: LOX IMVI melanoma
SF-539 CNS = tested on: SF-539 CNS
IGROV1 ovarian = tested on: IGROV1 ovarian
MOLT-4 leukemia = tested on: MOLT-4 leukemia
CAKI-1 renal = tested on: CAKI-1 renal
HOP-62 NSCLC = tested on: HOP-62 NSCLC
M14 melanoma = tested on: M14 melanoma
NCI-H226 lung = tested on: NCI-H226 lung
NCI/ADR-RES ovarian = tested on: NCI/ADR-RES ovarian
SK-MEL-2 melanoma = tested on: SK-MEL-2 melanoma

| SMILES | TGI (HCC-2998 colon) [µM] | TGI (SF-295 CNS) [µM] | TGI (SK-MEL-28 melanoma) [µM] | TGI (BT-549 breast) [µM] | TGI (LOX IMVI melanoma) [µM] | TGI (SF-539 CNS) [µM] | TGI (IGROV1 ovarian) [µM] | TGI (MOLT-4 leukemia) [µM] | TGI (CAKI-1 renal) [µM] | TGI (HOP-62 NSCLC) [µM] | TGI (M14 melanoma) [µM] | TGI (NCI-H226 lung) [µM] | TGI (NCI/ADR-RES ovarian) [µM] | TGI (SK-MEL-2 melanoma) [µM] |
| --- | --- | --- | --- | --- | --- | --- | --- | --- | --- | --- | --- | --- | --- | --- |
| CC(C)(C)C1CC[C@H](O)[C@H]([C@@H](O)CC2CC(=O)N(c3ccccc3)C(=O)C2)C1 (some centres not stated) | > 100 | > 100 | > 100 | > 100 | > 100 | > 100 | > 100 | > 100 | > 100 | > 100 | > 100 | > 100 | > 100 | – |
| CC(C)(C)c1cc(C(C)(C)C)c(SSc2c(C(C)(C)C)cc(C(C)(C)C)c(O)c2O)c(O)c1O | – | – | 33.8 | 28.3 | 23.6 | – | 26.3 | 10.4 | 23.7 | – | 25.2 | 35 | 70 | 28.4 |
| Cc1cc(O)c(C(O)c2ccccn2)cc1O (configuration not stated) | 70.3 | > 100 | 33.5 | – | 30.8 | > 100 | > 100 | > 100 | 24.2 | > 100 | 38.4 | – | 72.6 | – |
| CCCCCCCCCCCC(=O)OCC(O)CO (configuration not stated) | – | > 100 | > 100 | > 100 | > 100 | > 100 | – | > 100 | > 100 | > 100 | > 100 | > 100 | > 100 | > 100 |
| O=C1/C(=C/c2ccc([N+](=O)[O-])cc2)Oc2cc(O)ccc21 | > 100 | > 100 | > 100 | 78.7 | – | 94.4 | > 100 | 44.4 | 58.7 | > 100 | > 100 | 99.1 | 88.3 | – |
| CCOC(=O)c1sc2c(c1OC(=O)c1ccco1)c(=O)n(-c1ccccc1)c(=S)n2-c1ccccc1 | > 100 | > 100 | > 100 | – | 61.7 | 97.9 | 36.3 | 49.3 | 82.8 | > 100 | > 100 | 87.2 | 57 | – |
| CC[n+]1c(/C=C/c2cc(C(=O)OC)n3c2sc2ccccc23)sc2ccccc21 | 27.8 | – | – | – | 40.5 | 33.8 | 32.9 | 33.9 | – | 34.8 | 34.9 | 45.1 | – | 39 |
| COC(=O)c1c(C)c2c(c(C)c1O)OC(=O)c1c(C)cc(O)c(C=O)c1O2 | > 100 | > 100 | > 100 | > 100 | – | > 100 | > 100 | > 100 | – | > 100 | > 100 | > 100 | > 100 | – |
| COc1cc(C(C)c2cc3c(cc2OCCCCCOc2cc4c(cc2C(C)c2cc(OC)c(OC)c(OC)c2)OCO4)OCO3)cc(OC)c1OC (configuration not stated) | > 100 | > 100 | > 100 | – | > 100 | > 100 | > 100 | > 100 | > 100 | > 100 | > 100 | > 100 | – | > 100 |
| C=Cc1c(-c2ccccc2)cnc2[nH]c3ccccc3c12 | > 50 | > 50 | > 50 | – | > 50 | – | > 50 | > 50 | > 50 | > 50 | > 50 | – | – | > 50 |
| CCOC(=O)C1=C(C)N(Cc2ccccc2)C2(O)C=CC(=O)C3C(=O)N(c4ccccc4)C(=O)C132 (configuration not stated) | 3.2 | 13.7 | 3.54 | – | 3.43 | 3.45 | 4.32 | 5.54 | 4.17 | 5.52 | 3.92 | 5.7 | 10.6 | 3.98 |
| O=C(O)c1cc(-c2ccc3cc(O)c(O)cc3c2)ccc1O | – | > 12.5 | > 12.5 | > 12.5 | – | > 12.5 | > 12.5 | > 12.5 | > 12.5 | > 12.5 | > 12.5 | > 12.5 | > 12.5 | > 12.5 |
| O=C(CC(=O)n1nc(-c2ccccc2)c(N=Nc2ccc([N+](=O)[O-])cc2)c1-c1ccccc1)Nc1ccc(Cl)cc1 | 91.4 | > 100 | 80.8 | – | > 100 | 75.8 | > 100 | > 100 | 99.3 | 42.7 | > 100 | 70 | – | > 100 |
| COc1cccc(C2c3cc4c(cc3OC(N3CCCC3)C2c2ccccc2)OCO4)c1O (configuration not stated) | 23.9 | 30.3 | 28.1 | – | 46.2 | 21.7 | 47.8 | 21.5 | 7 | 47.6 | 25.4 | – | 67.2 | 27.9 |
| CC(=O)/C=C1/C(=O)C(CC(C)C)=C1CC(C)C | – | > 100 | > 100 | – | > 100 | > 100 | > 100 | > 100 | > 100 | > 100 | > 100 | > 100 | > 100 | > 100 |
| Cc1nsc2cc(Cl)n(C)c(=O)c12 | > 100 | – | > 100 | – | > 100 | > 100 | > 100 | > 100 | > 100 | > 100 | > 100 | > 100 | – | > 100 |
| CCCCCCCCC#CCCCCCCC(F)C(=O)O (configuration not stated) | > 100 | > 100 | > 100 | – | > 100 | > 100 | > 100 | > 100 | – | > 100 | > 100 | > 100 | > 100 | > 100 |
| O=C1CSc2ccnc(=O)n21 | > 100 | – | > 100 | > 100 | – | > 100 | > 100 | > 100 | > 100 | > 100 | > 100 | – | – | – |
| COc1cc2c(cc1OCCCN1CCOCC1)N=C[C@@H]1CCCN1C2=O | – | 42.1 | 29.1 | > 100 | > 100 | 22.3 | – | > 100 | 26.3 | 62.8 | 29.1 | 65.9 | > 100 | > 100 |
